Key:
L1210 cells [1] = assay: MTT assay, anti-cancer activity on L1210 cells in vitro; type: cell-based, mice; design: Cell Growth: unit not given here; conditions: for IC50: MTT, 48 hours, read-out: IC50 in L1210 Cell; for Cell Growth: L1210, 48 hours; for anti-cancer activity (IC50) compared with cisplatin, in words: L1210 cell
Procedure: (§1) In order to examine anti-cancer activity of Pt(IV) complexes according to the present invention, MTT, i.e., [3-(4,5-dimethylthiazol-2-yl)-2,5-diphenyltetrazolium bromide] assay was performed on HL60 and L1210 which are leukemic cell of human and mice, respectively.
(§2) MTT assay is a quantitative color analysis based on that mitochondrial dehydrogenase, one of cell enzymes, changes yellow water-soluble MTT into deep-blue water-insoluble formazan, and the amount of the generated formazan is proportioned to active cell numbers.^122-124)
(§3) HL60 and L1210, suspended leukemic cells of humans and mice, respectively are used as cancer cells for determining the anti-cancer activity of the Pt (IV) complex according to the above Examples. They were obtained by cultivating the frozen cells alloted from Korean Cell Line Bank.
(§4) Cells were subject to subculture at the interval of 2-3 days at 37° C. in the presence of 5% CO2 in RPMI 1640 culture medium controlled to contain 1% penicillin-streptomycin (10,000 unit/ml) and 10% FBS, with keeping the cell number between 2×10^5/ml-5×10^5/ml.
(§5) Pt (IV) complexes prepared by the Examples of the present invention were used as pharmaceutical compounds. Among them, a water-soluble compound was used as it was, and a water-insoluble compound was used after dissolving in DMSO or 95% ethanol, adding PBS to be 2 mM concentarion, filtering with 0.2μ syringe filter to be sterile state and performing serial-dilution with a culture medium to control predetermined concentrations. The final concentration of DMSO or 95% ethanol in cell culture medium was controlled to be below 0.1%.
HL60 and L1210 cells were put into 96-well plate in the amount of 10^4/well and then stabilized for a half hour at 37° C. in the presence of 5% CO2.
(§6) After cultivating HL60 cell at 37° C. in the presence of 5% CO2 for 72 hours and L1210 for 48 hours, MTT reagent (2 mg/ml) was added 50 μl/well, and an additional cultivation was performed at 37° C. in the presence of 5% CO2 for 4 hours. Then, after centrifuging the resultant at 2000 rpm for 5 minites, the supernatant was removed by 170 μl/well.
(§7) Then, after adding DMSO 150 μl/well, the resultant was laid at 40° C. for 30 minutes and stirred for 3 minutes. Then, absorption test using ELISA reader was performed at 570 nm.
(§8) For calibration, a blank test was performed on the same 96-well plate under the same condition.
(§9) The above-described experiment was performed on more than 3 wells under the same condition with different concentration, and the same experiment was repeated over 3 times.

HL60 cells = assay: MTT assay, anti-cancer activity on HL60 cells in vitro; type: cell-based, human; design: Cell Growth: unit not given here; conditions: for IC50: MTT, 72 hours, read-out: IC50 in HL60 Cell; for Cell Growth: HL60, 72 hours; for anti-cancer activity (IC50) compared with cisplatin, in words: HL60 cell
Procedure: as §1, §2, §3, §4, §5
HL60 and L1210 cells were put into 96-well plate in the amount of 10^4/well and then stabilized for a half hour at 37° C. in the presence of 5% CO2. […]
as §6, §7, §8, §9

[2] = test system: proximal renal tubule cells; assay: Nephrotoxicity test, electron microscopic findings (TEM) of proximal renal tubule; type: in vivo, mice
Procedure: In order to observe the ultra-structural changes of proximal renal tubule cells, a part of renal cortex of kidney was finely cut in the size of 1 mm^3, pre-fixed with 2% glutaraldehyde-2.5% paraformaldehyde solution, which is prepared with Millonig's phosphate buffer (pH 7.2) at 4° C. for 2-4 hours, and post-fixed with 1% osmium tetroxide for 2 hours, which is diluted with the same buffer solution. Then, after dehydrating the specimen according to ethanol-acetone concentration difference and embeding in Epon 812, it was made to be 2-5 μm thickness in thin section using ultramicrotome and temporarily stained with methylene blue to determine a proper site. Then, it was prepared tobe 60-80 nm thickness of the ultra-thin section, subject to double-staining with uranyl acetate and lead citrate, and observed with TEM (transmission electron microscope; Hitachi-600, Japan).

male ICR mice = assay: Nephrotoxicity test, serologic analysis (BUN, creatinine, uric acid) after i.p. injection; type: in vivo; design: unit not given here; conditions: serum, dose 8x IC50 (cisplatin 7x IC50), average ± SD of 5-6 ICR mice
Procedure: In order to serologically analyze nephrotoxicity of various Pt complexes, after injecting each agent intraperitneally, blood was exsanguinated after 6 hours, 1 day, 3 days and 7 days, respectively. Then, serum was seperated f rom the blood to detect the values of BUN (Blood urea nitrogen), creatinine and uric acid.^133)
As an experimental animal, male ICR mice each weighing about 25 g were purchased from Korean Experimental Animal Center. The experimental animals were bred in SPF(Specific Pathogen Free) room in Medical School of HanYang University, and food (purchased from SamYang) and water were supplied unrestrictedly.
The experimental animals were divided into a normal control group, a control group and an experimental group, and the experimental group was again divided into a cisplatin dispensing group, a 7(Ac)Cl treated group, a 7(TF)Cl treated group, a 7(Ac)M treated group, a 7(TF)M treated group and a 7FMN treated group.
Each groups comprised 20-22 mice, and each group was again divided into a 6 hour-treating group, a 1 day-treating group, a 3 day-treating group and a 7 day-treating group, which contains 5-6 mice, respectively.
First, a predetermined amount of agent was dissolved in DMSO or ethanol, and then PBS was added thereto to make the total volume be 6.6 ml. At this time, the content of DMSO or ethanol was controlled to be below 5%.
The agent dissolved in PBS was filtered using 0.2μ syringe filter, sterilized, and injected into intraperitoneally. Then, after 6 hours, 1 day, 3 days and 7 days, exsanguination was performed.
After seperating serum by centrifuging the blood exsanguinated from mice at 4,500 rpm for 15 minutes, the serum was kept at the temperature −20° C. BUN (Blood urea nitrogen), creatinine and uric acid were detected using a biochemical automatic analyzing apparatus (Olympus reply, Japan) and average and standard deviation were calculated from the obtained data.
Control group was dissolved in PBS and injected in dose of 6.6 ml/Kg.

L1210 cells [3] = conditions: literature value (J. Med. Chem. 1994, vol.37, No.10, 1471-1485); cited from earlier work
[4] = 1 Day after single i.p. injection
[5] = 7 Day after single i.p. injection
[6] = 6 hour after single i.p. injection
[7] = 3 day after single i.p. injection

Structure (SMILES)	IC50 (L1210 cells [1]) [µM]	IC50 (HL60 cells) [µM]	anti-cancer activity (IC50) compared with cisplatin, in words (L1210 cells [1])	anti-cancer activity (IC50) compared with cisplatin, in words (HL60 cells)	BUN after the 1st time injection (male ICR mice; [4])	Uric acid after the 1st time injection (male ICR mice; [4])	BUN after the 1st time injection (male ICR mice; [5])	Uric acid after the 1st time injection (male ICR mice; [5])	BUN after the 1st time injection (male ICR mice; [6])	Uric acid after the 1st time injection (male ICR mice; [6])	BUN after the 1st time injection (male ICR mice; [7])	Uric acid after the 1st time injection (male ICR mice; [7])	other results
NCCN.[Cl][Pt][Cl] [5 Cl, cis-dichloro,ethylenediamine Pt(II) complex]	11	11.7											
[Cl][Pt]1([Cl])[NH]CCC[NH]1 [6 Cl, cis-dichloro-1,3-propanediamine Pt(II) complex]	19.3	16.1											
[Cl][Pt]1([Cl])[NH]CCCC[NH]1 [7 Cl, cis-dichloro-1,4-butanediamine Pt(II) complex]	2.01	1.83											
O=C1CC(=O)[O][Pt]2([NH]CCCC[NH]2)[O]1 [7 Mal, malonato-1,4-butanediamine Pt(II) complex]	15	13.8											Cell Growth (L1210 cells [1]; 0.01 μM): 91; Cell Growth (L1210 cells [1]; 0.05 μM): 95; Cell Growth (L1210 cells [1]; 0.1 μM): 93; Cell Growth (L1210 cells [1]; 0.5 μM): 84.8; Cell Growth (L1210 cells [1]; 1 μM): 80.1; Cell Growth (L1210 cells [1]; 5 μM): 68; Cell Growth (L1210 cells [1]; 10 μM): 55; Cell Growth (L1210 cells [1]; 50 μM): 26.1; Cell Growth (L1210 cells [1]; 100 μM): 20.5; Cell Growth (HL60 cells; 0.01 μM): 92; Cell Growth (HL60 cells; 0.05 μM): 89; Cell Growth (HL60 cells; 0.1 μM): 89; Cell Growth (HL60 cells; 0.5 μM): 82.6; Cell Growth (HL60 cells; 1 μM): 78.8; Cell Growth (HL60 cells; 5 μM): 63.2; Cell Growth (HL60 cells; 10 μM): 57; Cell Growth (HL60 cells; 50 μM): 27; Cell Growth (HL60 cells; 100 μM): 20
CC(=O)[O][Pt]1([Cl])([Cl])([O]C(C)=O)[NH]CCCC[NH]1 [7(Ac)Cl, trans, cis-diacetato,dichloro-1,4-butanediamine Pt(IV) complex]			superior to cisplatin(CDDP)	superior to that of cisplatin	19.4 ± 3.3	1.92 ± 0.4	22.1 ± 3.4	1.74 ± 0.5	29.2 ± 1.8	2.18 ± 1.0	19.2 ± 2.8	1.88 ± 0.6	nephrotoxicity compared with cisplatin (conclusion from serologic and electron microscopic analysis) ([2]; 7(Ac)Cl 6 mg/kg, 7(TF)Cl 5.3 mg/kg (8 times of IC50), cisplatin 6 mg/kg (7 times of IC50), i.p.): weaker toxicity than cisplatin; ultra-structural changes of proximal renal tubule epithelial cells (TEM) ([2]; one day after i.p. injection): cytoplasmic organelle damages
CC(=O)[O][Pt]12([O]C(C)=O)([NH]CCCC[NH]1)[O]C(=O)CC(=O)[O]2 [7(Ac)M, trans-diacetato,malonato-1,4-butanediamine Pt (IV) complex]				higher than that of cisplatin	22.0 ± 4.1	2.34 ± 1.0	21.5 ± 5.1	1.52 ± 0.3	24.0 ± 6.2	2.66 ± 0.7	22.4 ± 3.3	2.0 ± 1.5	
[OH][Pt]1([OH])([Cl])([Cl])[NH]CCCC[NH]1 [7(OH)Cl, trans, cis-dihydroxo,dichloro-1,4-butanediamine Pt(IV) complex]			lower anti-cancer activity than that of cisplatin	lower anti-cancer activity than that of cisplatin									
O=C1CC(=O)[O][Pt]2([OH])([OH])([NH]CCCC[NH]2)[O]1 [7(OH)M, trans-dihydroxo,malonato-1,4-butanediamine Pt(IV) complex]			lower anti-cancer activity than that of cisplatin	lower anti-cancer activity than that of cisplatin									
O=C([O][Pt]1([Cl])([Cl])([O]C(=O)C(F)(F)F)[NH]CCCC[NH]1)C(F)(F)F [7(TF)Cl, trans, cis-ditriflioroacetato,dichloro-1,4-butanediamine Pt(IV) complex]			superior to cisplatin(CDDP)	superior to that of cisplatin	23.1 ± 3.3	1.82 ± 0.5	20.7 ± 3.5	1.88 ± 0.3	28.8 ± 6.4	2.2 ± 0.9	18.1 ± 2.3	2.22 ± 0.7	ultra-structural changes of proximal renal tubule epithelial cells (TEM) ([2]; sacrificed 6 hours after i.p. injection): seriously damaged findings; ultra-structural changes of proximal renal tubule epithelial cells (TEM) ([2]; sacrificed 3 days after i.p. injection): most of cytoplasmic organelles were damaged
O=C1CC(=O)[O][Pt]2([O]C(=O)C(F)(F)F)([O]C(=O)C(F)(F)F)([NH]CCCC[NH]2)[O]1 [7(TF)M, trans-ditrifluoroacetato,malonato-1,4-butanediamine Pt(IV) complex]				higher than that of cisplatin	23.1 ± 4.8	1.8 ± 0.4	22.3 ± 1.7	1.96 ± 0.3	22.1 ± 3.1	2.04 ± 0.3	22.9 ± 1.7	1.82 ± 0.4	
N.N.[Cl][Pt][Cl] [CDDP, cis-Diaminedichloroplatinum(II)]		2.74											
[NH2][Pt]1([NH2])[O]C(=O)C2(CCC2)C(=O)[O]1 [carboplatin, cis-diamine(1,1-cyclobutanedicarboxylato)platinum(II)]													IC50 relative to that of cisplatin (L1210 cells [3]): about 10 times

From US6340770B1, “Platinum (IV) complex used as anti-cancer agent and preparing method thereof” (Sook Myung Women's University, priority 1999, dated 2002)
